# In PubChem BioAssay AID210 (DTP/NCI, 2004):
# Several values for one entry are separate records, joined by “and”; a condition that tells them apart may be missing. Identical values can stand only once. Toxic doses and inconclusive results are not listed.
# Test system: CD2F1 mice, ip Colon 26 adenocarcinoma, median survival T/C
# Assay: NCI In Vivo Anticancer Drug Screen. Data for tumor model Colon 26 Adenocarcinoma (intraperitoneal) in CD2F1 (CDF1) mice
# Conditions: endpoint: median survival time, higher = longer survival
# Experimental: The antitumor activity of compounds was measured in mice bearing transplantable tumors. Survival or tumor size were measured and the results are expressed as the measurement made in the treated group (T) divided by the measurement made in the vehicle treated control group (C). The tumor model used in this assay is Colon 26 Adenocarcinoma (intraperitoneal) in CD2F1 (CDF1) mice
# [1] = dose: 6.25 mg/kg/injection, schedule: Q04DX003 (ip), vehicle: saline with Tween-80
# [2] = dose: 12.5 mg/kg/injection, schedule: Q04DX003 (ip), vehicle: saline with Tween-80
# [3] = dose: 25.0 mg/kg/injection, schedule: Q04DX003 (ip), vehicle: saline with Tween-80
# [4] = dose: 50.0 mg/kg/injection, schedule: Q04DX003 (ip), vehicle: saline with Tween-80
# [5] = dose: 12.5 mg/kg/injection, schedule: Q04DX002 (ip), vehicle: Klucel (hydroxypropylcellulose) (HPC)
smiles,measurement,setting,value
CCC[P+](c1ccccc1)(c1ccccc1)c1ccccc1,T/C,"dose: 3.12 mg/kg/injection, schedule: Q04DX003 (ip), vehicle: saline with Tween-80",112 % of control
same,T/C,[1],107 % of control
same,T/C,[2],104 % of control
same,T/C,[3],110 % of control
same,T/C,[4],110 % of control
COCC1OC(OC2C3=C(C(C)C)CCC3(C)/C=C3\C(CCC3(O)COC)C(C)C2O)C(O)C2OC3OC12OC3(C)C1CO1 (stereo not drawn),T/C,"dose: 0.78 mg/kg/injection, schedule: Q04DX002 (ip), vehicle: Klucel (hydroxypropylcellulose) (HPC)",105 % of control and 94 % of control
same,T/C,"dose: 1.56 mg/kg/injection, schedule: Q04DX002 (ip), vehicle: Klucel (hydroxypropylcellulose) (HPC)",104 % of control and 106 % of control
same,T/C,"dose: 3.12 mg/kg/injection, schedule: Q04DX002 (ip), vehicle: Klucel (hydroxypropylcellulose) (HPC)",109 % of control and 95 % of control
same,T/C,"dose: 6.25 mg/kg/injection, schedule: Q04DX002 (ip), vehicle: Klucel (hydroxypropylcellulose) (HPC)",116 % of control and 89 % of control and 100 % of control
same,T/C,[5],103 % of control and 104 % of control and 98 % of control
NCCNc1ccc(NCCN)c2c1C(=O)c1ccccc1C2=O,T/C,"dose: 1.5 mg/kg/injection, schedule: Q01DX009 (ip), vehicle: acid diluted with saline",171 % of control
same,T/C,"dose: 2.0 mg/kg/injection, schedule: Q01DX009 (ip), vehicle: acid diluted with saline",164 % of control
same,T/C,"dose: 3.0 mg/kg/injection, schedule: Q01DX009 (ip), vehicle: acid diluted with saline",263 % of control
same,T/C,"dose: 4.0 mg/kg/injection, schedule: Q01DX009 (ip), vehicle: acid diluted with saline",175 % of control
same,T/C,"dose: 6.0 mg/kg/injection, schedule: Q01DX009 (ip), vehicle: acid diluted with saline",254 % of control
same,T/C,"dose: 8.0 mg/kg/injection, schedule: Q01DX009 (ip), vehicle: acid diluted with saline",213 % of control
same,T/C,"dose: 12.0 mg/kg/injection, schedule: Q01DX009 (ip), vehicle: acid diluted with saline",214 % of control
same,T/C,"dose: 16.0 mg/kg/injection, schedule: Q01DX009 (ip), vehicle: acid diluted with saline",227 % of control
c1cc[c]([Sn][c]2ccccc2)cc1,T/C,"dose: 0.62 mg/kg/injection, schedule: Q04DX003 (ip), vehicle: saline with Tween-80",97 % of control
same,T/C,"dose: 0.62 mg/kg/injection, schedule: Q04DX003 (ip), vehicle: saline",105 % of control
same,T/C,"dose: 1.25 mg/kg/injection, schedule: Q04DX003 (ip), vehicle: saline with Tween-80",92 % of control
same,T/C,"dose: 1.25 mg/kg/injection, schedule: Q04DX003 (ip), vehicle: saline",112 % of control
same,T/C,"dose: 2.5 mg/kg/injection, schedule: Q04DX003 (ip), vehicle: saline with Tween-80",100 % of control
same,T/C,"dose: 2.5 mg/kg/injection, schedule: Q04DX003 (ip), vehicle: saline",107 % of control
same,T/C,"dose: 5.0 mg/kg/injection, schedule: Q04DX003 (ip), vehicle: saline with Tween-80",108 % of control
same,T/C,"dose: 5.0 mg/kg/injection, schedule: Q04DX003 (ip), vehicle: saline",117 % of control
same,T/C,"dose: 10.0 mg/kg/injection, schedule: Q04DX003 (ip), vehicle: saline",86 % of control
C=C1C(=O)C23C(O)CC4C5(C)CCCC4(C(O)OC5)C2C(OC(C)=O)CC1C3O (stereo not drawn),T/C,"dose: 8.0 mg/kg/injection, schedule: Q04DX002 (ip), vehicle: saline with Tween-80",116 % of control
same,T/C,"dose: 16.0 mg/kg/injection, schedule: Q04DX002 (ip), vehicle: saline with Tween-80",109 % of control
same,T/C,"dose: 32.0 mg/kg/injection, schedule: Q04DX002 (ip), vehicle: saline with Tween-80",92 % of control
same,T/C,"dose: 64.0 mg/kg/injection, schedule: Q04DX002 (ip), vehicle: saline with Tween-80",103 % of control
C=C/C(C)=C/[C@H](C)C(=O)C[C@H](O)CC1CC(=O)NC(=O)C1,T/C,[1],97 % of control
same,T/C,[2],100 % of control
same,T/C,[3],108 % of control
same,T/C,[4],109 % of control
same,T/C,"dose: 200.0 mg/kg/injection, schedule: Q04DX003 (ip), vehicle: saline with Tween-80",121 % of control
COc1cccc2c1C(=O)c1c(O)c3c(c(O)c1C2=O)C[C@@](O)(C(=O)CO)C[C@@H]3OC1CC(OC(C)=O)C(OC(C)=O)C(C)O1 (stereo partly drawn),T/C,"dose: 58.0 mg/kg/injection, schedule: Q07DX002 (sc), vehicle: distilled water + Tween-80",109 % of control
same,T/C,"dose: 101.0 mg/kg/injection, schedule: Q07DX002 (sc), vehicle: distilled water + Tween-80",120 % of control
same,T/C,"dose: 300.0 mg/kg/injection, schedule: Q07DX002 (sc), vehicle: distilled water + Tween-80",150 % of control
Nc1ncnc2c1ncn2C1OC(CO)C(O)C1O (stereo not drawn),T/C,"dose: 50.0 mg/kg/injection, schedule: Q04DX002 (ip), vehicle: suspension in saline",101 % of control
same,T/C,"dose: 64.0 mg/kg/injection, schedule: Q04DX002 (ip), vehicle: Klucel (hydroxypropylcellulose) (HPC)",90 % of control
same,T/C,"dose: 100.0 mg/kg/injection, schedule: Q04DX002 (ip), vehicle: suspension in saline",113 % of control
same,T/C,"dose: 128.0 mg/kg/injection, schedule: Q04DX002 (ip), vehicle: Klucel (hydroxypropylcellulose) (HPC)",93 % of control
same,T/C,"dose: 200.0 mg/kg/injection, schedule: Q04DX002 (ip), vehicle: suspension in saline",108 % of control
same,T/C,"dose: 256.0 mg/kg/injection, schedule: Q04DX002 (ip), vehicle: Klucel (hydroxypropylcellulose) (HPC)",91 % of control
same,T/C,"dose: 400.0 mg/kg/injection, schedule: Q04DX002 (ip), vehicle: suspension in saline",107 % of control
same,T/C,"dose: 800.0 mg/kg/injection, schedule: Q04DX002 (ip), vehicle: suspension in saline",122 % of control
same,T/C,"dose: 1024.0 mg/kg/injection, schedule: Q04DX002 (ip), vehicle: Klucel (hydroxypropylcellulose) (HPC)",98 % of control
CC1CC2OC2/C=C\C=C\C(=O)Cc2c(Cl)c(O)cc(O)c2C(=O)O1 (stereo not drawn),T/C,[5],94 % of control
same,T/C,"dose: 25.0 mg/kg/injection, schedule: Q04DX002 (ip), vehicle: Klucel (hydroxypropylcellulose) (HPC)",92 % of control
same,T/C,"dose: 50.0 mg/kg/injection, schedule: Q04DX002 (ip), vehicle: Klucel (hydroxypropylcellulose) (HPC)",99 % of control
same,T/C,"dose: 100.0 mg/kg/injection, schedule: Q04DX002 (ip), vehicle: Klucel (hydroxypropylcellulose) (HPC)",99 % of control
same,T/C,"dose: 200.0 mg/kg/injection, schedule: Q04DX002 (ip), vehicle: Klucel (hydroxypropylcellulose) (HPC)",95 % of control
COc1cccc2c1C(=O)c1c(O)c3c(c(O)c1C2=O)C[C@@](O)(C(C)=O)C[C@@H]3OC1CC(N)C(O)C(C)O1 (stereo partly drawn),T/C,"dose: 1.8 mg/kg/injection, schedule: Q04DX003 (ip), vehicle: water",114 % of control
same,T/C,"dose: 2.0 mg/kg/injection, schedule: Q04DX003 (ip), vehicle: saline",158 % of control
same,T/C,"dose: 2.0 mg/kg/injection, schedule: Q07DX002 (iv), vehicle: saline",113 % of control
same,T/C,"dose: 2.16 mg/kg/injection, schedule: Q04DX003 (ip), vehicle: water",119 % of control
same,T/C,"dose: 3.4 mg/kg/injection, schedule: Q07DX002 (iv), vehicle: saline",106 % of control
same,T/C,"dose: 3.6 mg/kg/injection, schedule: Q04DX003 (ip), vehicle: water",103 % of control
same,T/C,"dose: 4.0 mg/kg/injection, schedule: Q04DX003 (ip), vehicle: saline",115 % of control
same,T/C,"dose: 5.7 mg/kg/injection, schedule: Q07DX002 (iv), vehicle: saline",104 % of control
same,T/C,"dose: 9.5 mg/kg/injection, schedule: Q07DX002 (iv), vehicle: saline",115 % of control
[I][Hg][CH2]C1COC([CH2][Hg][I])CO1 (stereo not drawn),T/C,[2],117 % of control
same,T/C,[3],109 % of control
same,T/C,[4],96 % of control
CN(C)CCCNc1c2ccccc2nc2cccc([N+](=O)[O-])c12,T/C,"dose: 0.02 mg/kg/injection, schedule: Q07DX002 (iv), vehicle: saline with Tween-80",105 % of control
same,T/C,"dose: 0.04 mg/kg/injection, schedule: Q07DX002 (iv), vehicle: saline with Tween-80",107 % of control
same,T/C,"dose: 0.07 mg/kg/injection, schedule: Q07DX002 (iv), vehicle: saline with Tween-80",108 % of control
same,T/C,"dose: 0.12 mg/kg/injection, schedule: Q07DX002 (iv), vehicle: saline with Tween-80",106 % of control
same,T/C,"dose: 0.3 mg/kg/injection, schedule: Q07DX002 (iv), vehicle: saline with Tween-80",101 % of control
same,T/C,"dose: 0.46 mg/kg/injection, schedule: Q07DX002 (iv), vehicle: saline with Tween-80",100 % of control
CCC[CH2][Hg][Cl],T/C,"dose: 3.12 mg/kg/injection, schedule: Q04DX003 (ip), vehicle: Klucel (hydroxypropylcellulose) (HPC)",98 % of control
same,T/C,"dose: 6.25 mg/kg/injection, schedule: Q04DX003 (ip), vehicle: Klucel (hydroxypropylcellulose) (HPC)",93 % of control
